# Results reported in patent publication US7550133B2, “Respiratory drug condensation aerosols and methods of making and using them” (Alexza Pharmaceuticals, Inc., priority 2002, dated 2009).
# Legend:
# [1] = Volatilization from stainless steel cylinder (flashbar); HPLC analysis of the condensation aerosol; assay type: physicochemical; conditions: drug dip coated on stainless steel flashbar, capacitors 20.5 volts, heated to about 400° C. within about 200 milliseconds, 15 L/min room air
# Description: A hollow stainless steel cylinder with thin walls, typically 0.12 mm wall thickness, a diameter of 13 mm, and a length of 34 mm was cleaned in dichloromethane, methanol, and acetone, then dried, and fired at least once to remove any residual volatile material and to thermally passivate the stainless steel surface. The substrate was then dip-coated with a drug coating solution (prepared as described above). The dip-coating was done using a computerized dipcoating machine to produce a thin layer of drug on the outside of the substrate surface. The substrate was lowered into the drug solution and then removed from the solvent at a rate of typically 5-25 cm/sec. (To coat larger amounts of material on the substrate, the substrate was removed more rapidly from the solvent or the solution used was more concentrated.) The substrate was then allowed to dry for 30 minutes inside a fume hood. If either dimethylformamide (DMF) or a water mixture was used as a dip-coating solvent, the substrate was vacuum dried inside a desiccator for a minimum of one hour. The drug-coated portion of the cylinder generally has a surface area of 8 cm^2. By assuming a unit density for the drug, the initial drug coating thickness was calculated. The amount of drug coated onto the substrates was determined in the same manner as that described above: the substrates were coated, then extracted with methanol or acetonitrile and analyzed with quantitative HPLC methods, to determine the mass of drug coated onto the substrate.
# The drug-coated substrate was placed in a surrounding glass tube connected at the exit end via Tygon® tubing to a filter holder fitted with a Teflon® filter (Savillex). The junction of the tubing and the filter was sealed with paraffin film. The substrate was placed in a fitting for connection to two 1 Farad capacitors wired in parallel and controlled by a high current relay. The capacitors were charged by a separate power source to about 18-22 Volts and most of the power was channeled to the substrate by closing a switch and allowing the capacitors to discharge into the substrate. The substrate was heated to a temperature of between about 300-500° C. in about 100 milliseconds. The heating process was done under an airflow of 15 L/min, which swept the vaporized drug aerosol into a 2 micron Teflon® filter.
# After volatilization, the aerosol captured on the filter was recovered for quantification and analysis. The quantity of material recovered in the filter was used to determine a percent yield, based on the mass of drug coated onto the substrate. The material recovered in the filter was also analyzed generally by HPLC UV absorbance at typically 225 nm using a gradient method aimed at detection of impurities, to determine purity of the thermal vapor. Any material deposited on the glass sleeve or remaining on the substrate was also recovered and quantified to determine a percent total recovery ((mass of drug in filter+mass of drug remaining on substrate and glass sleeve)/mass of drug coated onto substrate). For compounds without UV absorption GCMS or LC/MS was used to determine purity and to quantify the recovery. Some samples were further analyzed by LC/MS to confirm the molecular weight of the drug and any degradants.
# About 1.2 mg of albuterol was dip coated onto the stainless steel surface of a flashbar apparatus. (The flashbar is a cylinder 3.5 cm long and 1.3 cm in diameter consisting of a hollow tube of 0.005″ thick stainless steel). Brass electrodes were connected to either end of the steel cylinder. The coated flashbar was secured in an electrical mount, which connected to two 1.0 Farad capacitors in parallel. An airway was provided by a 2 cm diameter glass sleeve placed around the flashbar. 15 L/min of room air were pulled by a house vacuum through the vaporization chamber and a filter housing, which contained a two-micron Teflon filter. […]
# [2] = Volatilization Using Stainless Steel Foil; HPLC analysis of the condensation aerosol; assay type: physicochemical; conditions: for Purity of the aerosol (purity analysis): single drug on stainless steel foil substrate (5 cm^2), film thickness about 0.4-1.2 μm, capacitor charged to 15 V; for Purity of each drug in the aerosol from a mixture of albuterol and flunisolide: about 0.20 mg flunisolide and about 0.16 mg albuterol co-coated on stainless steel foil (5 cm^2), film about 0.64 μm, capacitor 15.5 V
# Description: Strips of clean 304 stainless steel foil (0.0125 cm thick, Thin Metal Sales) having dimensions 1.3 cm by 7.0 cm were dip-coated approximately 4.5 to 5 cm on the strip with an asthma drug solution prepared as described above. The foil was then partially dipped three times into solvent to rinse drug off of the last 2-3 cm of the dipped end of the foil. Alternatively, the drug-coating from this bottom 2-3 cm area was carefully taken off with a razor blade. The final coated area was between 2.0-2.5 cm by 1.3 cm on both sides of the foil, for a total area of between 5.2-6.5 cm^2. Foils were prepared as stated above and then some were extracted with methanol or acetonitrile as standards. The amount of drug was determined from quantitative HPLC analysis. Using the known drug-coated surface area, the thickness was then calculated.
# After drying, the drug-coated foil was placed into a volatilization chamber constructed of a Delrin block (the airway) and brass bars, which served as electrodes. The dimensions of the airway were 1.3 cm high by 2.6 cm wide by 8.9 cm long. The drug-coated foil was placed into the volatilization chamber such that the drug-coated section was between the two sets of electrodes. After securing the top of the volatilization chamber, the electrodes were connected to a 1 Farad capacitor (Phoenix Gold). The back of the volatilization chamber was connected to a two micron Teflon® filter (Savillex) and filter housing, which were in turn connected to the house vacuum. Sufficient airflow was initiated (typically 30 L/min=1.5 m/sec), at which point the capacitor was charged with a power supply, typically to between 14-17 Volts.
# The circuit was closed with a switch, causing the drug-coated foil to resistively heat to temperatures of about 280-430° C. (as measured with an infrared camera (FLIR Thermacam SC3000)), in about 200 milliseconds. After the drug had vaporized, airflow was stopped and the Teflon® filter was extracted with acetonitrile. Drug extracted from the filter was analyzed generally by HPLC UV absorbance generally at 225 nm using a gradient method aimed at detection of impurities to determine percent purity. Also, the extracted drug was quantified to determine a percent yield, based on the mass of drug initially coated onto the substrate. A percent recovery was determined by quantifying any drug remaining on the substrate and chamber walls, adding this to the quantity of drug recovered in the filter and comparing it to the mass of drug initially coated onto the substrate.
Compound,Purity of the aerosol (purity analysis by HPLC) [1],Purity of the aerosol (purity analysis) [2] [%],Purity of each drug in the aerosol from a mixture of albuterol and flunisolide [2] [%]
CC(C)NCC(O)c1cc(O)cc(O)c1 (centres unmarked) [metaproterenol],99.1%,,
CC(C)Cn1c(=O)n(C)c(=O)c2[nH]cnc21 [IBMX],,99.9,
CCCC1O[C@@H]2C[C@H]3[C@@H]4CCC5=CC(=O)C=C[C@]5(C)[C@H]4[C@@H](O)C[C@]3(C)[C@]2(C(=O)CO)O1 (some centres unmarked) [budesonide],70.5%,,
CC(C)C(=O)OCC(=O)[C@@]12O[C@H](C3CCCCC3)O[C@@H]1C[C@H]1[C@@H]3CCC4=CC(=O)C=C[C@]4(C)[C@H]3[C@@H](O)C[C@@]12C [ciclesonide],,99.03,
CCCn1c(=O)c2[nH]c(C3CCCC3)nc2n(CCC)c1=O [CPX],,99.8,
CCC(=O)O[C@]1(C(=O)SCF)[C@H](C)C[C@H]2[C@@H]3C[C@H](F)C4=CC(=O)C=C[C@]4(C)[C@@]3(F)[C@@H](O)C[C@@]21C [fluticasone propionate],,91.6,
CC1(C)O[C@@H]2C[C@H]3[C@@H]4CCC5=CC(=O)C=C[C@]5(C)[C@@]4(F)[C@@H](O)C[C@]3(C)[C@]2(C(=O)CO)O1 [triamcinolone acetonide],about 92.0%,,
flunisolide,97.6%,94.9,94.5
Cn1c(=O)c2[nH]cnc2n(C)c1=O [theophylline],about 99.5%,,
CC(C)(C)NCC(O)c1cc(O)cc(O)c1 (centres unmarked) [terbutaline],99.3%,,
CC(C)(C)NCC(O)c1ccc(O)c(CO)c1 (centres unmarked) [albuterol],94.4%,,97.2
